Results reported in patent US5223526A, “Pyrazole carboxanilide fungicides and use” (Monsanto Company, priority 1992, dated 1993).

How the values were obtained:
[1] = test system: Rhizoctonia solani; experiment: Rice sheath blight; type: in vivo; set-up: scale not given here; details: inoculated two days later, rated after 7 days, average of five plants; for Disease Control Rating at 0.02 mg/mL: foliage and soil sprayed with 0.02 mg/mL; for Disease Control Rating at 0.1 mg/mL: foliage and soil sprayed with 0.1 mg/mL; for Disease Control Rating at 0.5 mg/mL: foliage and soil sprayed with 0.5 mg/mL
How it was run: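 Rice plants 11–15 days old had foliage and soil sprayed with 0.5, 0.1 or 0.02 mg/mL Compound A in water/acetone/Tween 20, then kept in flooded trays. Two days later, rice-grain Rhizoctonia solani inoculum went to plant bases; disease control scored versus untreated after 7 days at 25 °C, high humidity, averaging five plants.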

[2] = target: T1, succinate dehydrogenase (Botrytis cinerea, UniProt A0A384J5E4+A0A384J8V8+A0A384JHJ5); experiment: Enzyme inhibition: succinate dehydrogenase activity in Botrytis cinerea mitochondria (DCPIP reduction); type: biochemical; details: concentration required to inhibit the rate of DCPIP reduction by 50%; Botrytis cinerea isolate Nick mitochondria; read-out: I50 (μM conc.)
T1 construct: succinate-DCPIP reductase assay with KCN
T1 sequence (A0A384J5E4 1-300): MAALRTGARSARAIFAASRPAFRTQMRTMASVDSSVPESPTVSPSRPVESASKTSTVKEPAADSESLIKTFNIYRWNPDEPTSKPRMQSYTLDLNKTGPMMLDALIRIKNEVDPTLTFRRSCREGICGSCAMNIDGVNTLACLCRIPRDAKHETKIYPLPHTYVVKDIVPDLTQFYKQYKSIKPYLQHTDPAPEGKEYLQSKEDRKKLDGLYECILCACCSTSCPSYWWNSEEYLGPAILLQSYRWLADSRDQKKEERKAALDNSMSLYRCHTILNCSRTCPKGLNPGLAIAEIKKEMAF
T1 sequence (A0A384J8V8 1-189): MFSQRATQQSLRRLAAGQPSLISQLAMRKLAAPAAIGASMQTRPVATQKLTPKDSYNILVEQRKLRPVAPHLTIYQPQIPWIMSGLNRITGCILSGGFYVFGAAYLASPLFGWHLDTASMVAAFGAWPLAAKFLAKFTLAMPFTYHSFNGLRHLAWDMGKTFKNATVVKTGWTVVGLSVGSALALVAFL
T1 sequence (A0A384JHJ5 1-192): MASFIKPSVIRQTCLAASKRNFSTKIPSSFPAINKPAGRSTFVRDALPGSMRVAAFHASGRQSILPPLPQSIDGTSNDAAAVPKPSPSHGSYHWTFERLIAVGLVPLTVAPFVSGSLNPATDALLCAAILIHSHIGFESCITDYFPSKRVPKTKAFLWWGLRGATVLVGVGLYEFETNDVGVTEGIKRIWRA
T1 sequence (A0A384K456 1-647 partner): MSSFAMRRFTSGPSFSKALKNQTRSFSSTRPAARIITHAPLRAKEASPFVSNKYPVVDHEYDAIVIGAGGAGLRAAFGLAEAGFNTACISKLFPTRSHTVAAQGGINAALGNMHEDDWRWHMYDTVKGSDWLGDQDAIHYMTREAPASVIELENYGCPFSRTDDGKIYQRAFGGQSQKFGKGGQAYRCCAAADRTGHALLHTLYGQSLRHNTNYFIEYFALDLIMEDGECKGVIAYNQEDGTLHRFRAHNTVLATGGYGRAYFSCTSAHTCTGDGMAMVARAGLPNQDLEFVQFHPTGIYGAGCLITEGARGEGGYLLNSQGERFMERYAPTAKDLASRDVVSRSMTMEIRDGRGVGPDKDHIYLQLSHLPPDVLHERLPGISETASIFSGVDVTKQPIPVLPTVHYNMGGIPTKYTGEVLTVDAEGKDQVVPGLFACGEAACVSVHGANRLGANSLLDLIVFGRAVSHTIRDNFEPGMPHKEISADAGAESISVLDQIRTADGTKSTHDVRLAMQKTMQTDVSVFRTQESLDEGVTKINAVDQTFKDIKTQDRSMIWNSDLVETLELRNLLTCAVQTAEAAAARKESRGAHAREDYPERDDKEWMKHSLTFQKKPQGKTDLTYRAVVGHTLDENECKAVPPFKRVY
How it was run: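 Crude mitochondria from Botrytis cinerea isolate Nick mycelia, prepared by bead-beating and differential centrifugation, started reactions. SDH activity followed as DCPIP reduction at 600 nm in 50 mM K-phosphate pH 7.2 with 1 mM KCN, 45 μM DCPIP, 17 mM succinate, 1% acetone. I50 from semilog inhibition plots, corrected for succinate-free rates.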

[3] = test system: Botrytis cinerea; experiment: Vine grey mold (grape berries); type: in vivo; details: average of six berries, 7-10 days; for pest or weed control at 50 ppm: grape berries treated with 50 ppm, read-out: % DISEASE CONTROL 50 ppm; for pest or weed control at 200 ppm: grape berries treated with 200 ppm, read-out: % DISEASE CONTROL 200 ppm
How it was run: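 Preventive berry test: compound at 50 or 200 ppm (acetone/water, 0.05% Tween 20) applied one day before inoculation with 10^6 spores/mL Botrytis conidia. After 7-10 days at 20 °C under 12 h light, infected surface area rated; disease control expressed as percent reduction from control mean; repeated-test values averaged.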

[4] = test system: Botrytis cinerea; experiment: Eggplant grey mold; type: in vivo; set-up: scale not given here; details: inoculated 24 h later, rated after 3-4 days; for Disease Control Rating at 500 ppm: eggplant sprayed with 500 ppm; for Disease Control Rating at 20 ppm: eggplant sprayed with 20 ppm; for Disease Control Rating at 100 ppm: eggplant sprayed with 100 ppm
How it was run: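 Protective test: compound formulations (2:3 acetone:water, 0.5% Tween 20; 500, 100 or 20 ppm) sprayed on 14-18-day-old plants, with spore inoculum (4×10^6 spore/mL) applied a day later. Disease control rated on Botrytis lesions after 3-4 days at 23 °C and 100% humidity.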

SMILES	Disease Control Rating at 0.02 mg/mL [1]	Disease Control Rating at 0.1 mg/mL [1]	Disease Control Rating at 0.5 mg/mL [1]	IC50 [2] [µM]	pest or weed control at 50 ppm [3] [%]	pest or weed control at 200 ppm [3] [%]	Disease Control Rating at 500 ppm [4]	Disease Control Rating at 20 ppm [4]	Disease Control Rating at 100 ppm [4]
Cn1cc(C(=O)Nc2ccccc2O[C@H]2C[C@H]3CC[C@@H]2C3)c(C(F)F)n1 (relative stereo) [Example 82, 1H-pyrazole-4-carboxamide, N-[2-(bicyclo[2.2.1]hept-2-yloxy)-phenyl]-3-(difluoromethyl)-1-methyl-, endo-]	3	3	3	0.065	0	0	0		
Cn1cc(C(=O)Nc2ccccc2OCCCC2CCCC2)c(C(F)(F)F)n1 [Example 49, 1H-pyrazole-4-carboxamide, N-[2-(3-cyclopentylpropoxy)phenyl]-1-methyl-3-(trifluoromethyl)-]			0	0.047	4	0	0		
Cn1cc(C(=O)Nc2ccccc2C2CCCCC2)c(C(F)(F)F)n1 [Example 2, 1H-pyrazole-4-carboxamide, N-(2-cyclohexylphenyl)-1-methyl-3-(trifluoromethyl)-]	3	3	3	0.012	84	87	3	1	3
Cn1cc(C(=O)Nc2cc(Cl)ccc2C2CCCCC2)c(C(F)F)n1 [Example 93, 1H-pyrazole-4-carboxamide, N-(5-chloro-2-cyclohexylphenyl)-3-(difluoromethyl)-1-methyl-]			0	0.044	0	15	0	0	0
Cn1cc(C(=O)Nc2ccccc2C2CCCCCC2)c(OC(F)F)n1 [Example 60]			0	0.35	0	0	0		
Cn1cc(C(=O)Nc2ccccc2C2CCCCC2)c([N+](=O)[O-])n1 [Example 62, 1H-pyrazole-4-carboxamide, N-(2-cyclohexylphenyl]-1-methyl-3-nitro-]			0	0.29	0	0	1	0	0
Cn1nc(C(F)(F)F)c(C(=O)Nc2ccccc2[C@@H]2C[C@H]3CC[C@@H]2C3)c1Cl (relative stereo) [Example 88, 1H-pyrazole-4-carboxamide, N-(2-bicyclo[2.2.1]hept-2-ylphenyl)-5-chloro-1-methyl-3-(trifluoromethyl)-, exo-]			0	0.035	0	0	0		
CCC1CC=C(c2ccccc2NC(=O)c2cn(C)nc2C(F)(F)F)CC1 (stereo not shown) [Example 126, 1H-pyrazole-4-carboxamide, N-[2-(4-ethyl-1-cyclohexen-1-yl)phenyl]-1-methyl-3-(trifluoromethyl)-]			3	0.0066	59	97	1	0	1
Cn1cc(C(=O)Nc2ccccc2C2=CCCCC2)c(C(F)F)n1 [Example 109, 1H-pyrazole-4-carboxamide, N-[2-(1-cyclohexen-1-yl)phenyl]-3-(difluoromethyl)-1-methyl-]	0	1	3	0.0072	100	100	0		
Cn1cc(C(=O)Nc2ccccc2OCCCC2CCCC2)c(C(F)F)n1 [Example 48, 1H-pyrazole-4-carboxamide, N-[2-(3-cyclopentylpropoxy)phenyl]-3-(difluoromethyl)-1-methyl-]			2	0.02	10	0	0		
Cn1cc(C(=O)Nc2ccccc2C2CCCCCC2)c(I)n1 [Example 57, 1H-pyrazole-4-carboxamide, N-[2-(cycloheptyl)phenyl]-3-iodo-1-methyl-]			0	0.0047	53	72	0		
Cn1cc(C(=O)Nc2ccccc2C2CCCC2)c(C(F)(F)Cl)n1 [Example 90, 1H-pyrazole-4-carboxamide, 3-(chlorodifluoromethyl)-N-(2-cyclopentylphenyl)-1-methyl-]			0	0.79	0	33	0	0	0
Cn1cc(C(=O)Nc2ccccc2C2CCCCCC2)c(C(F)(F)F)n1 [Example 10, 1H-pyrazole-4-carboxamide, N-(2-cycloheptylphenyl)-1-methyl-3-(trifluoromethyl)-]	2	3	3	0.003	87	85	2	2	2
Cc1nn(C)cc1C(=O)Nc1ccccc1C1CCCCC1 [Example 3, 1H-pyrazole-4-carboxamide, N-(2-cyclohexylphenyl)-1,3-dimethyl-]			0	0.027	10	62	2	0	1
Cn1cc(C(=O)Nc2ccccc2[C@@H]2C[C@H]3CC[C@@H]2C3)c(C(F)F)n1 (relative stereo) [Example 26, 1H-pyrazole-4-carboxamide, N-(2-bicyclo[2.2.1]hept-2-ylphenyl)-3-(difluoromethyl)-1-methyl-, exo-]			1	0.0017	97	100	1	1	2
Cn1cc(C(=O)Nc2ccccc2C2CCCCC2)c(OC(F)F)n1 [Example 59]			0	1	0	0	0		
COc1ccc(C2CCCCCCC2)c(NC(=O)c2cn(C)nc2C(F)(F)F)c1 [Example 38, 1H-pyrazole-4-carboxamide, N-(2-cyclooctyl-5-methoxyphenyl)-1-methyl-3-(trifluoromethyl)-]	0	0	1	0.014	0	14	2	0	2
Cn1cc(C(=O)Nc2ccccc2C2CCCCCC2)c(C(F)F)n1 [Example 9, 1H-pyrazole-4-carboxamide, N-(2-cycloheptylphenyl)-3-(difluoromethyl)-1-methyl-]	3	3	3	0.0019	94	89	2	0	2
Cn1cc(C(=O)Nc2ccccc2C2=CCOCC2)c(C(F)F)n1 [Example 104, 1H-pyrazole-4-carboxamide, 3-(difluoromethyl)-N-[2-(5,6-dihydro-2H-pyran-4-yl)phenyl]-1-methyl-]			0	0.77	0	48	0		
